Data from patent US11667637B2, “Fused imidazo-piperidine JAK inhibitors” (THERAVANCE BIOPHARMA R&D IP, LLC, priority 2017, dated 2023).

How the values were obtained:
[1] = system: IL-6 stimulated STAT3 phosphorylation in CD3+ T cells; experiment: Inhibition of IL-6 stimulated pSTAT3 in CD3+ T cells; format: cell-based, human; conditions: statement in words
Text: Assay 10: Cellular JAK Potency Assay: Inhibition of IL-6 Stimulated pSTAT3 in CD3+ T Cells
A protocol analogous to that of Assay 9 was used to determine the potency of the test compound for inhibition of interleukin-6 (IL-6) stimulated STAT3 phosphorylation. An Alexa Fluor 647 conjugated anti-pSTAT3 antibody (pY705, Clone 4/P, BD Biosciences) was used to detect STAT3 phosphorylation.

[2] = system: IL-5 mediated survival of human eosinophils; experiment: IL-5 mediated eosinophil survival assay; format: cell-based; conditions: statement in words
Experimental: Assay 6: IL-5 Mediated Eosinophil Survival Assay
The potency of the test compound for IL-5 mediated eosinophil survival was measured in human eosinophils isolated from human whole blood (AllCells). Because IL-5 signals through JAK, this assay provides a measure of JAK cellular potency.
Human eosinophils were isolated from fresh human whole blood (AllCells) of healthy donors. Blood was mixed with 4.5% Dextran (Sigma-Aldrich) in a 0.9% sodium chloride solution (Sigma-Aldrich). Red blood cells were left to sediment for 35 minutes. The leukocyte rich upper layer was removed and layered over Ficoll-Paque (GE Healthcare) and centrifuged at 600 g for 30 minutes. The plasma and mononuclear cell layers were removed before the granulocyte layer was lysed with water to remove any contaminating red blood cells. […] Purity was analyzed using a LSRII flow cytometer (BD Biosciences). […]
After cytokine stimulation, cells were centrifuged at 300 g for 5 min and washed twice with cold DPBS (Life Technologies). To access viability and apoptosis, cells were incubated with Propidium Iodide (Thermo Fisher Scientific) and APC Annexin V (BD Biosciences) and analyzed using a LSRII flow cytometer (BD Biosciences). IC50 values were determined from analysis of the viability curves of percent cell viability vs compound concentration. Data are expressed as pIC50 (negative decadic logarithm IC50) values.

SMILES | inhibition of IL-6 signaling [1] | inhibition of IL-5 mediated human eosinophil survival [2]
CCc1cc(O)c(F)cc1-c1ccc2c(-c3nc4c([nH]3)CN(C(C)C)[C@H](C(=O)N3CC[C@H](N(C)C)C3)C4)n[nH]c2c1 [Example 3] | inhibit IL-6 signaling | 
CCCN1Cc2[nH]c(-c3n[nH]c4cc(-c5cc(F)c(O)cc5CC)ccc34)nc2C[C@H]1C(=O)N1C[C@@H]2C[C@H]1CN2C [Example 1, ((S)-2-(6-(2-ethyl-5-fluoro-4-hydroxyphenyl)-1H-indazol-3-yl)-5-propyl-4,5,6,7-tetrahydro-3H-imidazo[4,5-c]pyridin-6-yl)((1S,4S)-5-methyl-2,5-diazabicyclo-[2.2.1]heptan-2-yl)methanone] | inhibit IL-6 signaling | potently inhibit
